Laboratory results published in article PMC9764071 (Acta Pharmaceutica Sinica. B, 2022).

Assays:
PD-1/PD-L1 interaction = PD-1/PD-L1 interaction (Homo sapiens, UniProt Q9NZQ7); assay: TR-FRET assay of PD-1/PD-L1 interaction inhibition; assay type: binding
A375 cells = assay: Cytotoxicity evaluation by Real-Time Cell Analyzing; assay type: cell-based; conditions: 20 μmol/L of compound; RTCA; versus control group
[1] = target: PD-1/PD-L1 interaction on H460 cells (Homo sapiens, UniProt Q9NZQ7); assay type: cell-based
T cells in TILs = assay: Flow cytometry of tumor infiltrating lymphocytes, MC38 model; assay type: in vivo, C57BL/6 mice
[2] = test system: Lewis lung carcinoma (LLC) cells overexpressing hPD-L1 (LLC-hPD-L1); assay: In vivo antitumor activity on Balb/c-nude mice; conditions: P39 4, 10 and 25 mg/kg
[3] = test system: CD8, IFN-γ and GzmB expression; assay: Immunohistochemistry; assay type: in vivo, mice; conditions: IHC of tumor tissues; Fig. S8
[4] = test system: PD-1/PD-L1 interaction, H358 cells; assay: PD-1/PD-L1 blockade bioassay; assay type: cell-based; conditions: P39-treated H358 cells versus untreated cells; concentration-dependent
[5] = target: PD-1/PD-L1 interaction on MDA-MB-231 cells (Homo sapiens, UniProt Q9NZQ7); assay type: cell-based; conditions: P39 0–200 nmol/L, 24 h; immunostaining
MC38 tumor cells = assay: In vivo antitumor activity, MC38 mouse model; parameters: species or system C57BL/6 mice
[6] = test system: Lewis lung carcinoma (LLC) cells overexpressing hPD-L1 (LLC-hPD-L1); assay: In vivo antitumor activity, humanized LLC-hPD-L1 mouse model; parameters: species or system hPD-1-knockin C57BL/6 mice
Acute toxicity test = assay type: in vivo, ICR mice
H460 cells = assay: PBMCs-mediated tumor cell-killing assay; assay type: cell-based, human; conditions: P39 100 or 200 nmol/L, 24 h

PD-1/PD-L1 interaction, sequence (Q9NZQ7 19-238 limits assumed): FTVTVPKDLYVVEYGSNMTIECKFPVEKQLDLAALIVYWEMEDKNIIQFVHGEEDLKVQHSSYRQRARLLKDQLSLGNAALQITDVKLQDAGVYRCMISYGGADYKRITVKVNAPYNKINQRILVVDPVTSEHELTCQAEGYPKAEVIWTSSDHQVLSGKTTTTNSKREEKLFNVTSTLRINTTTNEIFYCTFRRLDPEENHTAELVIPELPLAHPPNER
PD-1/PD-L1 interaction on H460 cells, sequence (Q9NZQ7 19-290): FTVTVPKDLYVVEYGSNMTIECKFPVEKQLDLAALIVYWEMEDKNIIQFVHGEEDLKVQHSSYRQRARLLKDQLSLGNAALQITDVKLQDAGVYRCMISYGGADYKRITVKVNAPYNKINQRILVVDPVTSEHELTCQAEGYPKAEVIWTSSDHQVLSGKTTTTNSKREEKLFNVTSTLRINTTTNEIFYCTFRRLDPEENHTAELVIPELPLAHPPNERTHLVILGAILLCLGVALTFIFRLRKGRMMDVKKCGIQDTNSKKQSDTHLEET
PD-1/PD-L1 interaction on MDA-MB-231 cells, sequence (Q9NZQ7 19-290): as above

| Structure (SMILES) | IC50 (PD-1/PD-L1 interaction) | further results |
| --- | --- | --- |
| N#Cc1cccc(COc2cc3c(cc2CN2CCC[C@H]2C(=O)O)C(=O)N(c2cccc(-c4ccccc4)c2Cl)C3=O)c1 [P14] | 22.1 nM | – |
| Cc1c(-c2ccccc2)cccc1N1C(=O)c2cc(CN3CC[C@@H](O)C3)c(OCc3cccc(C#N)c3)cc2C1=O [P23] | 216 nM | – |
| Cc1c(-c2ccccc2)cccc1N1C(=O)c2ccc(OCc3cccc(C#N)c3)c(CN3CCC[C@H]3C(=O)O)c2C1=O [P10] | 4380 nM | – |
| N#Cc1cccc(COc2cc3c(cc2CNC2CCOCC2)C(=O)N(c2cccc(-c4ccccc4)c2Cl)C3=O)c1 [P13] | 39.3 nM | – |
| Cc1c(-c2ccccc2)cccc1N1C(=O)c2cc(CN[C@@H](C)C(=O)OC(C)(C)C)c(OCc3cccc(C#N)c3)cc2C1=O [P36] | 1670 nM | – |
| Cc1c(-c2ccccc2)cccc1N1C(=O)c2cc(CNCCO)c(OCc3ccc(C#N)cc3)cc2C1=O [P4] | 153 nM | cytotoxicity, real-time growth of A375 cells (A375 cells): essentially non-toxic to A375 cells |
| N#Cc1cccc(COc2cc3c(cc2CN2CCC[C@H]2C(=O)O)C(=O)N(c2cccc(-c4ccccc4)c2F)C3=O)c1 [P16] | 31.6 nM | – |
| Cc1c(-c2ccccc2)cccc1N1C(=O)c2cc(CNCC(=O)O)c(OCc3cccc(C#N)c3)cc2C1=O [P33] | 13.3 nM | cytotoxicity, real-time growth of A375 cells (A375 cells): essentially non-toxic to A375 cells |
| Cc1c(-c2ccccc2)cccc1N1C(=O)c2cc(CN(C)CC(=O)O)c(OCc3cccc(C#N)c3)cc2C1=O [P35] | 46.6 nM | – |
| Cc1c(-c2ccccc2)cccc1N1C(=O)c2cc(CN3CC(C(=O)O)C3)c(OCc3cccc(C#N)c3)cc2C1=O [P27] | 42.4 nM | – |
| Cc1c(-c2ccccc2)cccc1N1C(=O)c2cc(CNCCNC(=O)OC(C)(C)C)c(OCc3cccc(C#N)c3)cc2C1=O [P20] | 395 nM | – |
| Cc1c(-c2ccccc2)cccc1N1C(=O)c2cc(CN3CCC[C@H]3C(=O)O)c(OCc3cccc(C#N)c3)cc2C1=O [P8] | 52.1 nM | cytotoxicity, real-time growth of A375 cells (A375 cells): essentially non-toxic to A375 cells |
| Cc1c(-c2ccccc2)cccc1N1C(=O)c2cc(CN3CC(O)C3)c(OCc3cccc(C#N)c3)cc2C1=O [P25] | 187 nM | – |
| Cc1c(-c2ccccc2)cccc1N1C(=O)c2cc(CN[C@H](C(=O)O)C(C)O)c(OCc3cccc(C#N)c3)cc2C1=O (some centres unmarked) [P39] | 8.9 nM | inhibitory activity on PD-1 binding to tumor cells compared to BMS202 ([1]; 200 nmol/L, Fig. 4A and B): stronger inhibitory activity compared to the positive compound BMS202; binding capacity of PD-1 to H460 cells ([1]; P39 0–200 nmol/L, 24 h, flow cytometry and immunostaining): significantly decreased in a dose-dependent manner; population of CD4+ T cells in the tumor tissue (T cells in TILs; P39-treated mice versus control group, Fig. S6C): did not change compared to the control group; ratio of CD8+ to CD3+ T cells in the tumor (T cells in TILs; P39-treated mice, Fig. S6B and 6E): greatly increased; ability to clear tumor cells in immunodeficient mice [2]: no ability to clear tumor cells; expression of CD8, IFN-γ, and GzmB [3]: increased expression; transcriptional-mediated bioluminescent signal [4]: significant increase; binding capacity of PD-1 to MDA-MB-231 cells [5]: significantly decreased in a dose-dependent manner; cytotoxicity, real-time growth of A375 cells (A375 cells): essentially non-toxic to A375 cells; tumor volume growth inhibition (MC38 tumor cells; 10 mg/kg i.p. once daily, 4 weeks): 54.9%; tumor volume growth inhibition (MC38 tumor cells; 25 mg/kg i.p. once daily, 4 weeks): 68.3%; final tumor weight (MC38 tumor cells; 10 and 25 mg/kg groups versus control group): significantly decreased; weight loss or death of mice during treatment (MC38 tumor cells; 10 and 25 mg/kg i.p. once daily, 4 weeks): No weight loss or death of mice; tumor inhibitory effect compared with BMS202 (10 mg/kg) ([6]; P39 25 mg/kg): much better activity; tumor inhibition rate ([6]; high dose, 25 mg/kg, 12 days of administration): 79.0%; inhibition rate of tumor growth ([6]; low dose, 10 mg/kg): 66.2%; LD50 at 14 days (Acute toxicity test; ICR, mouse, in vivo, po): > 5000 mg/kg; mortality and body weight loss (Acute toxicity test; oral single dose 5000 mg/kg, observed two weeks): no mortality and obvious body weight loss; sensitivity of tumor cells to T cell killing (activated human PBMCs) (H460 cells): greatly increased |
| Cc1c(-c2ccccc2)cccc1N1C(=O)c2cc(CNC3CCOCC3)c(OCc3cccc(C#N)c3)cc2C1=O [P7] | 45.6 nM | – |
| COC(=O)CNCc1cc2c(cc1OCc1cccc(C#N)c1)C(=O)N(c1cccc(-c3ccccc3)c1C)C2=O [P31] | 836 nM | – |
| N#Cc1cccc(COc2cc3c(cc2CN2CCCC[C@H]2C(=O)O)C(=O)N(c2cccc(-c4ccccc4)c2C#N)C3=O)c1 [P12] | 100 nM | – |
| Cc1c(-c2ccccc2)cccc1N1C(=O)c2cc(CN[C@@H](Cc3ccccc3)C(=O)OC(C)(C)C)c(OCc3cccc(C#N)c3)cc2C1=O [P40] | 1690 nM | – |
| Cc1c(-c2ccccc2)cccc1N1C(=O)c2cc(CNCCO)c(OCc3ccccc3)cc2C1=O [P5] | 216 nM | – |

| Structure (SMILES) | IC50 (PD-1/PD-L1 interaction) | further results |
| --- | --- | --- |
| Cc1c(-c2ccccc2)cccc1N1C(=O)c2cc(CNCCO)c(OCc3cccc(C#N)c3)cc2C1=O [P1] | 45.4 nM | cytotoxicity, real-time growth of A375 cells (A375 cells): essentially non-toxic to A375 cells |
| Cc1c(-c2ccccc2)cccc1N1C(=O)c2cc(CN3CCC[C@H]3CO)c(OCc3cccc(C#N)c3)cc2C1=O [P22] | 251 nM | – |
| Cc1c(-c2ccccc2)cccc1N1C(=O)c2cc(CN3CCCC[C@H]3C(=O)O)c(OCc3cccc(C#N)c3)cc2C1=O [P11] | 117 nM | – |
| Cc1c(-c2ccccc2)cccc1N1C(=O)c2cc(CN[C@@H](Cc3ccccc3)C(=O)O)c(OCc3cccc(C#N)c3)cc2C1=O [P41] | 527 nM | – |
| Cc1c(-c2ccccc2)cccc1N1C(=O)c2cc(CNCCO)c(OCc3ccc(C(C)C)cc3)cc2C1=O [P6] | 921 nM | – |
| Cc1c(-c2ccccc2)cccc1N1C(=O)c2cc(CN(C)CCO)c(OCc3cccc(C#N)c3)cc2C1=O [P19] | 150 nM | – |
| Cc1c(-c2ccccc2)cccc1N1C(=O)c2cc(CN[C@@H](CO)C(=O)O)c(OCc3cccc(C#N)c3)cc2C1=O [P30] | 14 nM | cytotoxicity, real-time growth of A375 cells (A375 cells): essentially non-toxic to A375 cells |
| Cc1c(-c2ccccc2)cccc1N1C(=O)c2cc(CNCC(=O)OC(C)(C)C)c(OCc3cccc(C#N)c3)cc2C1=O [P32] | 1160 nM | – |
| CC(=O)NCCNCc1cc2c(cc1OCc1cccc(C#N)c1)C(=O)N(c1cccc(-c3ccccc3)c1C)C2=O [P18] | 79.1 nM | – |
| Cc1c(-c2ccccc2)cccc1N1C(=O)c2ccc(OCc3cccc(C#N)c3)c(CNC3CCOCC3)c2C1=O [P9] | 1140 nM | – |
| N#Cc1cccc(COc2cc3c(cc2CNC2CCOCC2)C(=O)N(c2cccc(-c4ccccc4)c2F)C3=O)c1 [P15] | 58.7 nM | cytotoxicity, real-time growth of A375 cells (A375 cells): essentially non-toxic to A375 cells |
| Cc1c(-c2ccccc2)cccc1N1C(=O)c2cc(CN3CCC[C@H]3C(N)=O)c(OCc3cccc(C#N)c3)cc2C1=O [P26] | 564 nM | – |
| Cc1c(-c2ccccc2)cccc1N1C(=O)c2cc(CN[C@@H](C)C(=O)O)c(OCc3cccc(C#N)c3)cc2C1=O [P37] | 11.6 nM | cytotoxicity, real-time growth of A375 cells (A375 cells): essentially non-toxic to A375 cells |
| Cc1c(-c2ccccc2)cccc1N1C(=O)c2cc(CN[C@H](C(=O)OC(C)(C)C)C(C)O)c(OCc3cccc(C#N)c3)cc2C1=O (some centres unmarked) [P38] | > 10000 nM | – |
| Cc1c(-c2ccccc2)cccc1N1C(=O)c2cc(CN(C)CC(=O)OC(C)(C)C)c(OCc3cccc(C#N)c3)cc2C1=O [P34] | > 10000 nM | – |
| Cc1c(-c2ccccc2)cccc1N1C(=O)c2cc(CNCCN(C)C)c(OCc3cccc(C#N)c3)cc2C1=O [P21] | 189 nM | – |
| Cc1c(-c2ccccc2)cccc1N1C(=O)c2cc(CNCCO)c(OCc3ccccc3C#N)cc2C1=O [P3] | 171 nM | cytotoxicity, real-time growth of A375 cells (A375 cells): essentially non-toxic to A375 cells |
| Cc1c(-c2ccccc2)cccc1N1C(=O)c2cc(CN3CCOCC3)c(OCc3cccc(C#N)c3)cc2C1=O [P24] | 738 nM | – |
| Cc1c(-c2ccccc2)cccc1N1C(=O)c2cc(CN[C@@H](CO)C(=O)OC(C)(C)C)c(OCc3cccc(C#N)c3)cc2C1=O [P29] | 607 nM | – |
